System: HEK293T nuclear lysates
Assay: SILAC‐based pull‐down proteomics H4K5me2/H4K5 (probes 7/5)
Format: binding, human
Conditions: for F6 log2 (H4K5me2/H4K5): run F6; for E6 log2 (H4K5me2/H4K5): run E6

probe 7: H4K5me2 peptide probe with photo‐arginine R(dz) and K(biotin) (SGRGKGGKGLGKGGK; photo-arginine R(dz) at 3; dimethyl-lysine at 5; K(biotin) at 15)
F6 log2 (H4K5me2/H4K5) (protein Q5SY16 NOL9): 0.298
E6 log2 (H4K5me2/H4K5) (protein Q5UIP0 RIF1): 0.1193
F6 log2 (H4K5me2/H4K5) (protein Q5UIP0 RIF1): -0.04241
E6 log2 (H4K5me2/H4K5) (protein Q5VZL5 ZMYM4): 0.09551
F6 log2 (H4K5me2/H4K5) (protein Q5VZL5 ZMYM4): -0.04431
E6 log2 (H4K5me2/H4K5) (protein Q8NFW8 CMAS): 0.141
F6 log2 (H4K5me2/H4K5) (protein Q8NFW8 CMAS): 0.05465
E6 log2 (H4K5me2/H4K5) (protein Q8WYA6 CTNNBL1): 0.1516
F6 log2 (H4K5me2/H4K5) (protein Q8WYA6 CTNNBL1): 0.456
E6 log2 (H4K5me2/H4K5) (protein Q9BRX2 PELO): 0.1716
F6 log2 (H4K5me2/H4K5) (protein Q9BRX2 PELO): 0.4162
E6 log2 (H4K5me2/H4K5) (protein Q9BUF5 TUBB6): 0.1331
F6 log2 (H4K5me2/H4K5) (protein Q9BUF5 TUBB6): -0.5148
E6 log2 (H4K5me2/H4K5) (protein Q9BVA1 TUBB2B): 0.166
F6 log2 (H4K5me2/H4K5) (protein Q9BVA1 TUBB2B): -0.2469
E6 log2 (H4K5me2/H4K5) (protein Q9BVJ6 UTP14A): 0.05903
F6 log2 (H4K5me2/H4K5) (protein Q9BVJ6 UTP14A): -0.461
E6 log2 (H4K5me2/H4K5) (protein Q9BW71 HIRIP3): 0.0877
F6 log2 (H4K5me2/H4K5) (protein Q9BW71 HIRIP3): -0.01781
E6 log2 (H4K5me2/H4K5) (protein Q9BXP5 SRRT): 0.141
F6 log2 (H4K5me2/H4K5) (protein Q9BXP5 SRRT): 0.1118
E6 log2 (H4K5me2/H4K5) (protein Q9H4L7 SMARCAD1): 0.1459
F6 log2 (H4K5me2/H4K5) (protein Q9H4L7 SMARCAD1): 0.07323
E6 log2 (H4K5me2/H4K5) (protein Q9H5H4 ZNF768): 0.1121
F6 log2 (H4K5me2/H4K5) (protein Q9H5H4 ZNF768): 0.2152
E6 log2 (H4K5me2/H4K5) (protein Q9NPJ6 MED4): 0.1455
F6 log2 (H4K5me2/H4K5) (protein Q9NPJ6 MED4): 0.1113
E6 log2 (H4K5me2/H4K5) (protein Q9NRL2 BAZ1A): 0.163
F6 log2 (H4K5me2/H4K5) (protein Q9NRL2 BAZ1A): 0.1532
E6 log2 (H4K5me2/H4K5) (protein Q9NX58 LYAR): 0.1556
F6 log2 (H4K5me2/H4K5) (protein Q9NX58 LYAR): 0.3557
E6 log2 (H4K5me2/H4K5) (protein Q9P013 CWC15): 0.1308
F6 log2 (H4K5me2/H4K5) (protein Q9P013 CWC15): 0.1373
E6 log2 (H4K5me2/H4K5) (protein Q9P258 RCC2): 0.1054
F6 log2 (H4K5me2/H4K5) (protein Q9P258 RCC2): 0.04172
E6 log2 (H4K5me2/H4K5) (protein Q9UFW8 CGGBP1): 0.1502
F6 log2 (H4K5me2/H4K5) (protein Q9UFW8 CGGBP1): 0.1918
E6 log2 (H4K5me2/H4K5) (protein Q9ULV4 CORO1C): 0.1506
F6 log2 (H4K5me2/H4K5) (protein Q9ULV4 CORO1C): 0.2392
E6 log2 (H4K5me2/H4K5) (protein Q9Y5Q8 GTF3C5): 0.07771
F6 log2 (H4K5me2/H4K5) (protein Q9Y5Q8 GTF3C5): -0.06295
E6 log2 (H4K5me2/H4K5) (protein Q9Y5Q9 GTF3C3): 0.06434
F6 log2 (H4K5me2/H4K5) (protein Q9Y5Q9 GTF3C3): 0.04559
E6 log2 (H4K5me2/H4K5) (protein Q9Y6G9 DYNC1LI1): 0.06739
F6 log2 (H4K5me2/H4K5) (protein Q9Y6G9 DYNC1LI1): 0.07842
E6 log2 (H4K5me2/H4K5) (protein Q9Y383 LUC7L2): 0.1112
F6 log2 (H4K5me2/H4K5) (protein Q9Y383 LUC7L2): 0.1004
E6 log2 (H4K5me2/H4K5) (protein Q69YN4 KIAA1429): 0.07633
F6 log2 (H4K5me2/H4K5) (protein Q69YN4 KIAA1429): 1.095
E6 log2 (H4K5me2/H4K5) (protein Q86UV5 USP48): 0.08539
F6 log2 (H4K5me2/H4K5) (protein Q86UV5 USP48): 0.1516
E6 log2 (H4K5me2/H4K5) (protein Q86VP6 CAND1): 0.1189
F6 log2 (H4K5me2/H4K5) (protein Q86VP6 CAND1): 0.1916
E6 log2 (H4K5me2/H4K5) (protein Q96I24 FUBP3): 0.09267
F6 log2 (H4K5me2/H4K5) (protein Q96I24 FUBP3): 0.003553
E6 log2 (H4K5me2/H4K5) (protein Q96RL1 UIMC1): 0.1095
F6 log2 (H4K5me2/H4K5) (protein Q96RL1 UIMC1): 0.3246
E6 log2 (H4K5me2/H4K5) (protein Q96SI9 STRBP): 0.1111
F6 log2 (H4K5me2/H4K5) (protein Q96SI9 STRBP): -0.1086
E6 log2 (H4K5me2/H4K5) (protein Q00839 HNRNPU): 0.1593
F6 log2 (H4K5me2/H4K5) (protein Q00839 HNRNPU): 0.1015
E6 log2 (H4K5me2/H4K5) (protein Q06265 EXOSC9): 0.08559
F6 log2 (H4K5me2/H4K5) (protein Q06265 EXOSC9): 0.2199
E6 log2 (H4K5me2/H4K5) (protein Q08211 DHX9): 0.1119
F6 log2 (H4K5me2/H4K5) (protein Q08211 DHX9): 0.3522
E6 log2 (H4K5me2/H4K5) (protein Q12888 TP53BP1): 0.1736
F6 log2 (H4K5me2/H4K5) (protein Q12888 TP53BP1): 0.06404
E6 log2 (H4K5me2/H4K5) (protein Q13409 DYNC1I2): 0.06369
F6 log2 (H4K5me2/H4K5) (protein Q13409 DYNC1I2): -0.3262
E6 log2 (H4K5me2/H4K5) (protein Q13838 DDX39B): 0.1273
F6 log2 (H4K5me2/H4K5) (protein Q13838 DDX39B): 0.2575
E6 log2 (H4K5me2/H4K5) (protein Q14247 CTTN): 0.1014
F6 log2 (H4K5me2/H4K5) (protein Q14247 CTTN): -0.09702
E6 log2 (H4K5me2/H4K5) (protein Q14498 RBM39): 0.177
F6 log2 (H4K5me2/H4K5) (protein Q14498 RBM39): 0.352
E6 log2 (H4K5me2/H4K5) (protein Q14683 SMC1A): 0.1403
F6 log2 (H4K5me2/H4K5) (protein Q14683 SMC1A): 0.1731
E6 log2 (H4K5me2/H4K5) (protein Q15007 WTAP): 0.1397
F6 log2 (H4K5me2/H4K5) (protein Q15007 WTAP): 0.4766
E6 log2 (H4K5me2/H4K5) (protein Q15029 EFTUD2): 0.07001
F6 log2 (H4K5me2/H4K5) (protein Q15029 EFTUD2): 0.00906
E6 log2 (H4K5me2/H4K5) (protein Q15181 PPA1): 0.1337
F6 log2 (H4K5me2/H4K5) (protein Q15181 PPA1): 0.2844
E6 log2 (H4K5me2/H4K5) (protein Q15366 PCBP2): 0.119
F6 log2 (H4K5me2/H4K5) (protein Q15366 PCBP2): 0.02194
E6 log2 (H4K5me2/H4K5) (protein Q15459 SF3A1): 0.09759
F6 log2 (H4K5me2/H4K5) (protein Q15459 SF3A1): -0.03717
E6 log2 (H4K5me2/H4K5) (protein Q15637 SF1): 0.06831
F6 log2 (H4K5me2/H4K5) (protein Q15637 SF1): -0.04609
E6 log2 (H4K5me2/H4K5) (protein Q15654 TRIP6): 0.1136
F6 log2 (H4K5me2/H4K5) (protein Q15654 TRIP6): 0.7606
E6 log2 (H4K5me2/H4K5) (protein Q16543 CDC37): 0.09946
F6 log2 (H4K5me2/H4K5) (protein Q16543 CDC37): -0.01218
E6 log2 (H4K5me2/H4K5) (protein Q92769 HDAC2): 0.1172
F6 log2 (H4K5me2/H4K5) (protein Q92769 HDAC2): 0.07863
E6 log2 (H4K5me2/H4K5) (protein Q92785 DPF2): 0.1557
F6 log2 (H4K5me2/H4K5) (protein Q92785 DPF2): 0.235
E6 log2 (H4K5me2/H4K5) (protein Q92945 KHSRP): 0.0526
F6 log2 (H4K5me2/H4K5) (protein Q92945 KHSRP): 0.2777
E6 log2 (H4K5me2/H4K5) (protein Q99459 CDC5L): 0.1274
F6 log2 (H4K5me2/H4K5) (protein Q99459 CDC5L): -0.0666

— publication PMC11005723, “Development of Complementary Photo‐arginine/lysine to Promote Discovery of Arg/Lys hPTMs Interactomes” (Advanced Science, 2024)
